The text below walks through data of patent US20220186188A1, “Method for Obtaining Pancreatic Progenitor Cells and Pancreatic Islet Beta Cells By Means of Differentiation of Human Pluripotent Stem Cells” (Asia Regenerative Medicine, Ltd., priority 2019, published 2022).

The data set relates to pancreatic progenitor cells and pancreatic islet β cells differentiated from human induced pluripotent stem cells. In words: Immunofluorescence detection of PDX1 and PDX1/INS proteins (human induced pluripotent stem cells). Format: cell-based.
Source text: […]

Where [1] appears, read: 2 μM inhibitor in pancreatic progenitor cell stage.

For the compound `Oc1nc(-c2ccc(C(F)(F)F)cc2)nc2c1CSCC2` [XAV-939], where the note is “2 μM inhibitor added in pancreatic progenitor cell stage, immunofluorescence”, the “number of insulin INS-positive and PDX1-co-stained pancreatic islet β cells in the mature pancreatic islet β cell stage” value is listed as “significantly increased”. In addition, under setting [1], the “PDX1-positive pancreatic progenitor cells (immunofluorescence)” value is reported as “significantly increased” and the “cell growth (total cell number by DAPI)” value is on record as “did not affect the cell growth”.
